# Test results reported in US11192877B2, “3-(5-hydroxy-1-oxoisoindolin-2-yl)piperidine-2,6-dione derivatives and uses thereof” (Novartis AG, priority 2018, dated 2021).
# Where a name gives a salt, the structure may show the parent alone.
# Molecular target: IKZF2 (Helios) (Homo sapiens, UniProt Q96SW2+Q9UKS7)
# Test: Prolabel quantification of IKZF2 protein levels in 293GT cells
# Assay type: cell-based
# Conditions: 24 h, Pro-label assay, 293GT cells, 10 μM, read-out: IKZF2 % protein reduction at 10 μM, 24 h
# Sequence of IKZF2 (Helios) (Q9UKS7 whole entry): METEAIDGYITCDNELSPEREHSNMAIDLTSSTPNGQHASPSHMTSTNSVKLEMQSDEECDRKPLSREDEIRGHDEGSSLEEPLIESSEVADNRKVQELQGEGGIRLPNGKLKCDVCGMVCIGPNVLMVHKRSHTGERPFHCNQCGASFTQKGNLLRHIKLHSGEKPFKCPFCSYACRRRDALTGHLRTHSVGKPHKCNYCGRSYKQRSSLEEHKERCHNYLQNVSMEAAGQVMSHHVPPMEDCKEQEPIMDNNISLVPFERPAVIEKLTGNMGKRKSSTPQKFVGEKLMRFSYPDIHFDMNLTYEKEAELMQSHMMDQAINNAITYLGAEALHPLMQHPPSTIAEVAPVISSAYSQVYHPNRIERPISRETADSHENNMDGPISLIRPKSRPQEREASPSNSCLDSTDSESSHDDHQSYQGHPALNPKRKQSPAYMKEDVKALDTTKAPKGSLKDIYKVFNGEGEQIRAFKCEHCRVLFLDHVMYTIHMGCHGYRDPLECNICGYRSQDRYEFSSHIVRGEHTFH
# Sequence of IKZF2 (Helios) (Q96SW2 whole entry): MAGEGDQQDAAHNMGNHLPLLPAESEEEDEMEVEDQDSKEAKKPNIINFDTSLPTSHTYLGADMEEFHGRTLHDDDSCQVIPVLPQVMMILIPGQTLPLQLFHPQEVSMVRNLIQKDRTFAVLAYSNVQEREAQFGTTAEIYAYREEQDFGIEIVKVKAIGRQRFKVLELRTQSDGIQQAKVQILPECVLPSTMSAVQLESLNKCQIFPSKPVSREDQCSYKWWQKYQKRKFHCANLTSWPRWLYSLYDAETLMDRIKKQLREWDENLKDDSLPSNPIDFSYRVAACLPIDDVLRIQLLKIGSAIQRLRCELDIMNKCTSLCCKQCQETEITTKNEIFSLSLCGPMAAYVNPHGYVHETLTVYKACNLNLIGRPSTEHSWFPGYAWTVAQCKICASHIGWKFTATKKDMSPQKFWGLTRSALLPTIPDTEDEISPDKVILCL
# Sequence of IKZF2 (Helios) (Q16531 whole entry partner): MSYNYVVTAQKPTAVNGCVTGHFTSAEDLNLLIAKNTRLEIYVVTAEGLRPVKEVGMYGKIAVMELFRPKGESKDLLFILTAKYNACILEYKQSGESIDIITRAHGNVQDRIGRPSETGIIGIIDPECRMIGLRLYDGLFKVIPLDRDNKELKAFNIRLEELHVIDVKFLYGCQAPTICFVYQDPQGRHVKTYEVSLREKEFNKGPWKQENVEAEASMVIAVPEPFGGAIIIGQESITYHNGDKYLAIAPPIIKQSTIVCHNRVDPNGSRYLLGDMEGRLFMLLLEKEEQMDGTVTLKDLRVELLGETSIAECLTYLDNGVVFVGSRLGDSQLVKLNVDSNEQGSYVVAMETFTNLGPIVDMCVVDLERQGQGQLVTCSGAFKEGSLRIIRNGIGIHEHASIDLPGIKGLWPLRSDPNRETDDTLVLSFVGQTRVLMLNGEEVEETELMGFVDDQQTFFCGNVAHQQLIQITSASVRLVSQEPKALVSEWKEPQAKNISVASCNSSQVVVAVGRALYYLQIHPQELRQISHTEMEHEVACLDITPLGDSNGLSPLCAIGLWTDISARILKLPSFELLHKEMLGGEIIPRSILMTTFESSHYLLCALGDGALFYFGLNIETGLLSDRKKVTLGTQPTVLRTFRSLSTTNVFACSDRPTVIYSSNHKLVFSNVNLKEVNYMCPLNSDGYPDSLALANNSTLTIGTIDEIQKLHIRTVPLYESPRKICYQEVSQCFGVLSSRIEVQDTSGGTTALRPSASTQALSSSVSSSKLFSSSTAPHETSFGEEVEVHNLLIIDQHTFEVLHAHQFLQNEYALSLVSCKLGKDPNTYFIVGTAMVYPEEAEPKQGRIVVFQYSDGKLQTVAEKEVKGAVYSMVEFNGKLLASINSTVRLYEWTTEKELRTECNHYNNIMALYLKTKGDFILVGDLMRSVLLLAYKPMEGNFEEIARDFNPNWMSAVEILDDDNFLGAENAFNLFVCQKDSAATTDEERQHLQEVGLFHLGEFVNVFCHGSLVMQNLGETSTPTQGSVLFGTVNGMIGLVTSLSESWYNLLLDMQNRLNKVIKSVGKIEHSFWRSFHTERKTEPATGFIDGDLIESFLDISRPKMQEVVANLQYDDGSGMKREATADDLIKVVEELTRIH
row,Molecule,IKZF2 % protein reduction at 10 µM
1,"CCN(CC)C1CC(C)(C)CC1Oc1ccc2c(c1)CN(C1CCC(=O)NC1=O)C2=O (mixture of isomers) [I-172, Mixture of 3-(5-(((1S,2S)-2-(diethylamino)-4,4-dimethylcyclopentyl)oxy)-1-oxoisoindolin-2-yl)piperidine-2,6-dione and 3-(5-(((1R,2R)-2-(diethylamino)-4,4-dimethylcyclopentyl)oxy)-1-oxoisoindolin-2-yl)piperidine-2,6-dione]",58%
2,"CN1CC[C@H]2CC[C@H](Oc3ccc4c(c3)CN(C3CCC(=O)NC3=O)C4=O)[C@H]21 (relative stereo) [I-3, 3-(5-(((3aR*,6S*,6aS*)-1-methyloctahydrocyclopenta[b]pyrrol-6-yl)oxy)-1-oxoisoindolin-2-yl)piperidine-2,6-dione]",40%
3,"O=C1CCC(N2Cc3cc(O[C@@H]4CCCC[C@@H]4O)ccc3C2=O)C(=O)N1 (relative stereo) [I-37, 3-(5-(((1R*, 2S*)-2-hydroxycyclohexyl)oxy)-1-oxoisoindolin-2-yl)piperidine-2,6-dione]",0%
4,"O=C1CCC(N2Cc3cc(O[C@H]4CC[C@@H]4NCc4ccccc4)ccc3C2=O)C(=O)N1 (single isomer, unassigned) [I-44]",42%
5,"CC1(C#N)CC(CN[C@H]2CCCC[C@@H]2Oc2ccc3c(c2)CN(C2CCC(=O)NC2=O)C3=O)C1 (single isomer, unassigned) [I-94]",84%
6,"COC1CC(CNC2CCCCC2Oc2ccc3c(c2)CN(C2CCC(=O)NC2=O)C3=O)C1 (single isomer, unassigned) [I-99]",86%
7,"CO[C@@H]1CCC[C@H]1N[C@H]1CCCC[C@@H]1Oc1ccc2c(c1)CN(C1CCC(=O)NC1=O)C2=O (single isomer, unassigned) [I-118]",67%
8,"CO[C@H]1CCC[C@@H]1N[C@H]1CCCC[C@@H]1Oc1ccc2c(c1)CN(C1CCC(=O)NC1=O)C2=O (single isomer, unassigned) [I-119]",59%
9,"O=C1CCC(N2Cc3cc(OC4CCCCC4N4CCC(F)(F)C4)ccc3C2=O)C(=O)N1 (single isomer, unassigned) [I-134, 3-(5-((2-(3,3-difluoropyrrolidin-1-yl)cyclohexyl)oxy)-1-oxoisoindolin-2-yl)piperidine-2,6-dione]",56%
10,"CCN(CC1CC(C)(C#N)C1)C1CCCC1Oc1ccc2c(c1)CN(C1CCC(=O)NC1=O)C2=O (single isomer, unassigned) [I-164]",71%
11,"CC1(C)CCCN([C@H]2CCC[C@@H]2Oc2ccc3c(c2)CN(C2CCC(=O)NC2=O)C3=O)C1 (single isomer, unassigned) [I-168]",83%
12,"CC1(C)CCCN([C@@H]2CCC[C@H]2Oc2ccc3c(c2)CN(C2CCC(=O)NC2=O)C3=O)C1 (single isomer, unassigned) [I-169]",2%
13,"O=C1CCC(N2Cc3cc(OC4CCCC4N4CCC5(CCOC5)CC4)ccc3C2=O)C(=O)N1 (single isomer, unassigned) [I-176, 3-(5-((2-(2-oxa-8-azaspiro[4.5]decan-8-yl)cyclopentyl)oxy)-1-oxoisoindolin-2-yl)piperidine-2,6-dione]",89%
14,"O=C1CCC(N2Cc3cc(OC4CCCC4N4CCCC5(CCC5)C4)ccc3C2=O)C(=O)N1 (single isomer, unassigned) [I-179, 3-(5-((2-(6-azaspiro[3.5]nonan-6-yl)cyclopentyl)oxy)-1-oxoisoindolin-2-yl)piperidine-2,6-dione]",85%
15,"O=C1CCC(N2Cc3cc(OC4CCCC4N4CCC5(CCOCC5)C4)ccc3C2=O)C(=O)N1 (single isomer, unassigned) [I-183, 3-(5-((2-(8-oxa-2-azaspiro[4.5]decan-2-yl)cyclopentyl)oxy)-1-oxoisoindolin-2-yl)piperidine-2,6-dione]",84%
16,"CO[C@@H]1CCN(C2CCCC2Oc2ccc3c(c2)CN(C2CCC(=O)NC2=O)C3=O)C1 (single isomer, unassigned) [I-192]",77%
17,"CO[C@H]1CCN(C2CCCC2Oc2ccc3c(c2)CN(C2CCC(=O)NC2=O)C3=O)C1 (single isomer, unassigned) [I-193]",79%

row,Molecule,IKZF2 % protein reduction at 10 µM
1,"O=C1CCC(N2Cc3cc(O[C@H]4CCC[C@@H]4N4CCCOCC4)ccc3C2=O)C(=O)N1 (stereo in doubt) [I-185, 3-(5-(((1S,2S)-2-(1,4-oxazepan-4-yl)cyclopentyl)oxy)-1-oxoisoindolin-2-yl)piperidine-2,6-dione]",66%
2,N[C@H]1CCC[C@@H]1Oc1ccc2c(c1)CN(C1CCC(=O)NC1=O)C2=O (some centres unmarked) [Cmpd I-12],65%
3,"CCN(CC(F)F)[C@H]1CCC[C@@H]1Oc1ccc2c(c1)CN(C1CCC(=O)NC1=O)C2=O (stereo partly drawn) [I-1, 3-(5-(((1S,2S)-2-((2,2-difluoroethyl)(ethyl)amino)cyclopentyl)oxy)-1-oxoisoindolin-2-yl)piperidine-2,6-dione]",10%
4,"O=C1CCC(N2Cc3cc(O[C@H]4CCCC[C@H]4NCc4ccccc4)ccc3C2=O)C(=O)N1 (stereo partly drawn) [I-2, 3-(5-(((1S,2R)-2-(benzylamino)cyclohexyl)oxy)-1-oxoisoindolin-2-yl)piperidine-2,6-dione]",10%
5,"CO[C@H]1CCCC[C@@H]1Oc1ccc2c(c1)CN(C1CCC(=O)NC1=O)C2=O (stereo partly drawn) [I-4, 3-(5-(((1S,2S)-2-methoxycyclohexyl)oxy)-1-oxoisoindolin-2-yl)piperidine-2,6-dione]",25%
6,"O=C1CCC(N2Cc3cc(O[C@H]4CCC[C@@H]4N4CC(O)C4)ccc3C2=O)C(=O)N1 (stereo partly drawn) [I-5, 3-(5-(((1S,2S)-2-(3-hydroxyazetidin-1-yl)cyclopentyl)oxy)-1-oxoisoindolin-2-yl)piperidine-2,6-dione]",60%
7,"O=C1CCC(N2Cc3cc(O[C@@H]4CCC[C@H]4O)ccc3C2=O)C(=O)N1 (stereo partly drawn) [I-6, 3-(5-(((1R,2R)-2-hydroxycyclopentyl)oxy)-1-oxoisoindolin-2-yl)piperidine-2,6-dione]",5%
8,"CC(C)CN[C@H]1CCCC[C@@H]1Oc1ccc2c(c1)CN(C1CCC(=O)NC1=O)C2=O (stereo partly drawn) [I-7, 3-(5-(((1S,2S)-2-(isobutylamino)cyclohexyl)oxy)-1-oxoisoindolin-2-yl)piperidine-2,6-dione]",85%
9,"O=C1CCC(N2Cc3cc(O[C@H]4CCC[C@@H]4N4CCC(F)(F)CC4)ccc3C2=O)C(=O)N1 (stereo partly drawn) [I-8, 3-(5-(((1S,2S)-2-(4,4-difluoropiperidin-1-yl)cyclopentyl)oxy)-1-oxoisoindolin-2-yl)piperidine-2,6-dione]",50%
10,"O=C1CCC(N2Cc3cc(O[C@H]4CCC[C@@H]4OCc4ccccc4)ccc3C2=O)C(=O)N1 (stereo partly drawn) [I-9, 3-(5-(((1S,2S)-2-(benzyloxy)cyclopentyl)oxy)-1-oxoisoindolin-2-yl)piperidine-2,6-dione]",0%
11,"CCN(CC)[C@@H]1CCC[C@@H]1Oc1ccc2c(c1)CN(C1CCC(=O)NC1=O)C2=O (stereo partly drawn) [I-10, 3-(5-(((1S,2R)-2-(diethylamino)cyclopentyl)oxy)-1-oxoisoindolin-2-yl)piperidine-2,6-dione]",0%
12,"O=C1CCC(N2Cc3cc(O[C@H]4CCCC[C@@H]4NCC4(C(F)(F)F)CC4)ccc3C2=O)C(=O)N1 (stereo partly drawn) [I-11, 3-(1-oxo-5-(((1S,2S)-2-(((1-(trifluoromethyl)cyclopropyl)methyl)amino)cyclohexyl)oxy)isoindolin-2-yl)piperidine-2,6-dione]",75%
13,"CCN(CC)[C@H]1CCC[C@@H]1Oc1ccc2c(c1)CN(C1CCC(=O)NC1=O)C2=O (stereo partly drawn) [I-13, 3-(5-(((1S,2S)-2-(diethylamino)cyclopentyl)oxy)-1-oxoisoindolin-2-yl)piperidine-2,6-dione]",85%
14,"CCN(CC)[C@H]1CCCC[C@@H]1Oc1ccc2c(c1)CN(C1CCC(=O)NC1=O)C2=O (stereo partly drawn) [I-14, 3-(5-(((1S,2S)-2-(diethylamino)cyclohexyl)oxy)-1-oxoisoindolin-2-yl)piperidine-2,6-dione]",60%
15,"O=C1CCC(N2Cc3cc(O[C@H]4CCC[C@@H]4N4CC5CCC(C5)C4)ccc3C2=O)C(=O)N1 (stereo partly drawn) [I-16, 3-(5-(((1S,2S)-2-(3-azabicyclo[3.2.1]octan-3-yl)cyclopentyl)oxy)-1-oxoisoindolin-2-yl)piperidine-2,6-dione]",85%
16,"O=C1CCC(N2Cc3cc(O[C@H]4CCC[C@@H]4N4CCC5(CC4)OCCO5)ccc3C2=O)C(=O)N1 (stereo partly drawn) [I-17, 3-(5-(((1S,2S)-2-(1,4-dioxa-8-azaspiro[4.5]decan-8-yl)cyclopentyl)oxy)-1-oxoisoindolin-2-yl)piperidine-2,6-dione]",80%

# Same assay, conditions: 24 h, read-out: IKZF2 % protein reduction at 10 μM, 24 h
row,Molecule,IKZF2 % protein reduction at 10 µM
1,"O=C1CCC(N2Cc3cc(O[C@H]4CCC[C@@H]4N4CCSCC4)ccc3C2=O)C(=O)N1 (stereo in doubt) [I-184, 3-(1-oxo-5-(((1S,2S)-2-thiomorpholinocyclopentyl)oxy)isoindolin-2-yl)piperidine-2,6-dione]",38%
2,"N[C@H]1CCCC[C@@H]1Oc1ccc2c(c1)CN(C1CCC(=O)NC1=O)C2=O (stereo partly drawn) [I-15, 3-(5-(((1S,2S)-2-aminocyclohexyl)oxy)-1-oxoisoindolin-2-yl)piperidine-2,6-dione hydrochloride]",50%

# Same assay, conditions: Pro-label assay, 293GT cells, 10 μM
row,Molecule,"IKZF2 % protein reduction at 10 μM, 24 h"
1,"3-(1-oxo-5-(((1S,2S)-2-phenoxycyclohexyl)oxy)isoindolin-2-yl)piperidine-2,6-dione and 3-(1-oxo-5-(((1R,2R)-2-phenoxycyclohexyl)oxy)isoindolin-2-yl)piperidine-2,6-dione [I-19]",10%
2,"COC1CC(CNC2CCCCC2Oc2ccc3c(c2)CN(C2CCC(=O)NC2=O)C3=O)C1 (single isomer, unassigned) [I-100]",86%
3,"CCN(CC1CC(C)(C#N)C1)C1CCCC1Oc1ccc2c(c1)CN(C1CCC(=O)NC1=O)C2=O (single isomer, unassigned) [I-165]",72%
